According to the NIST ThermoML archive (doi:10.1016/j.jct.2016.06.004):
Numbers after ± are expanded uncertainties.

Assays:
[1] = Ring tensiometer
[2] = xn = mol fraction of the nth substance listed; conditions: Ring tensiometer

For `O` [water], which surface tension liquid-gas ([1]; 298.15 K) is on record?
The surface tension liquid-gas was 72.05 ± 1.2 mN/m.

With `C[S+](C)[O-]` [dimethyl sulfoxide] + CCO as the compound, how does the surface tension liquid-gas ([2]; 298.15 K, x2 = 0) read?
Its surface tension liquid-gas is 42.43 ± 0.74 mN/m.

And the surface tension liquid-gas ([2]; 298.15 K, x2 = 0.087)?
Its surface tension liquid-gas is 39.25 ± 0.7 mN/m.

And the surface tension liquid-gas ([2]; 298.15 K, x2 = 0.174)?
The surface tension liquid-gas was 36.69 ± 0.66 mN/m.

And the surface tension liquid-gas ([2]; 298.15 K, x2 = 0.261)?
The surface tension liquid-gas was 34.4 ± 0.62 mN/m.

What about the surface tension liquid-gas ([2]; 298.15 K, x2 = 0.348) of the same compound?
Its surface tension liquid-gas is 32.29 ± 0.59 mN/m.

What about the surface tension liquid-gas ([2]; 298.15 K, x2 = 0.435) of the same compound?
The surface tension liquid-gas was 30.48 ± 0.56 mN/m.

What about the surface tension liquid-gas ([2]; 298.15 K, x2 = 0.522) of the same compound?
Its surface tension liquid-gas is 28.84 ± 0.54 mN/m.

What about the surface tension liquid-gas ([2]; 298.15 K, x2 = 0.609) of the same compound?
The surface tension liquid-gas was 27.34 ± 0.51 mN/m.

What about the surface tension liquid-gas ([2]; 298.15 K, x2 = 0.696) of the same compound?
Its surface tension liquid-gas is 26.04 ± 0.49 mN/m.

What about the surface tension liquid-gas ([2]; 298.15 K, x2 = 0.783) of the same compound?
Its surface tension liquid-gas is 24.63 ± 0.47 mN/m.

What about the surface tension liquid-gas ([2]; 298.15 K, x2 = 0.87) of the same compound?
The surface tension liquid-gas was 23.4 ± 0.45 mN/m.

What about the surface tension liquid-gas ([2]; 308.15 K, x2 = 0) of the same compound?
Its surface tension liquid-gas is 41.3 ± 0.73 mN/m.

What about the surface tension liquid-gas ([2]; 308.15 K, x2 = 0.087) of the same compound?
Its surface tension liquid-gas is 38.32 ± 0.68 mN/m.

What about the surface tension liquid-gas ([2]; 308.15 K, x2 = 0.174) of the same compound?
Its surface tension liquid-gas is 35.75 ± 0.64 mN/m.

What about the surface tension liquid-gas ([2]; 308.15 K, x2 = 0.261) of the same compound?
Its surface tension liquid-gas is 33.6 ± 0.61 mN/m.

And the surface tension liquid-gas ([2]; 308.15 K, x2 = 0.348)?
Its surface tension liquid-gas is 31.5 ± 0.58 mN/m.

What about the surface tension liquid-gas ([2]; 308.15 K, x2 = 0.435) of the same compound?
The surface tension liquid-gas was 29.71 ± 0.55 mN/m.

What about the surface tension liquid-gas ([2]; 308.15 K, x2 = 0.522) of the same compound?
Its surface tension liquid-gas is 28.08 ± 0.53 mN/m.

What about the surface tension liquid-gas ([2]; 308.15 K, x2 = 0.609) of the same compound?
The surface tension liquid-gas was 26.58 ± 0.5 mN/m.

And the surface tension liquid-gas ([2]; 308.15 K, x2 = 0.696)?
The surface tension liquid-gas was 25.22 ± 0.48 mN/m.

And the surface tension liquid-gas ([2]; 308.15 K, x2 = 0.783)?
Its surface tension liquid-gas is 23.91 ± 0.46 mN/m.

What about the surface tension liquid-gas ([2]; 308.15 K, x2 = 0.87) of the same compound?
The surface tension liquid-gas was 22.7 ± 0.44 mN/m.

What about the surface tension liquid-gas ([2]; 318.15 K, x2 = 0) of the same compound?
The surface tension liquid-gas was 40.17 ± 0.71 mN/m.

What about the surface tension liquid-gas ([2]; 318.15 K, x2 = 0.087) of the same compound?
The surface tension liquid-gas was 37.35 ± 0.67 mN/m.

What about the surface tension liquid-gas ([2]; 318.15 K, x2 = 0.174) of the same compound?
The surface tension liquid-gas was 34.88 ± 0.63 mN/m.

And the surface tension liquid-gas ([2]; 318.15 K, x2 = 0.261)?
The surface tension liquid-gas was 32.69 ± 0.6 mN/m.

And the surface tension liquid-gas ([2]; 318.15 K, x2 = 0.348)?
The surface tension liquid-gas was 30.73 ± 0.57 mN/m.

And the surface tension liquid-gas ([2]; 318.15 K, x2 = 0.435)?
The surface tension liquid-gas was 28.95 ± 0.54 mN/m.

What about the surface tension liquid-gas ([2]; 318.15 K, x2 = 0.522) of the same compound?
Its surface tension liquid-gas is 27.33 ± 0.51 mN/m.

And the surface tension liquid-gas ([2]; 318.15 K, x2 = 0.609)?
Its surface tension liquid-gas is 25.83 ± 0.49 mN/m.

And the surface tension liquid-gas ([2]; 318.15 K, x2 = 0.696)?
The surface tension liquid-gas was 24.44 ± 0.47 mN/m.

And the surface tension liquid-gas ([2]; 318.15 K, x2 = 0.783)?
Its surface tension liquid-gas is 23.14 ± 0.45 mN/m.

What about the surface tension liquid-gas ([2]; 318.15 K, x2 = 0.87) of the same compound?
The surface tension liquid-gas was 21.91 ± 0.43 mN/m.

And the surface tension liquid-gas ([2]; 328.15 K, x2 = 0)?
The surface tension liquid-gas was 39.08 ± 0.69 mN/m.

What about the surface tension liquid-gas ([2]; 328.15 K, x2 = 0.087) of the same compound?
Its surface tension liquid-gas is 36.37 ± 0.65 mN/m.

And the surface tension liquid-gas ([2]; 328.15 K, x2 = 0.174)?
The surface tension liquid-gas was 33.99 ± 0.62 mN/m.

What about the surface tension liquid-gas ([2]; 328.15 K, x2 = 0.261) of the same compound?
The surface tension liquid-gas was 31.87 ± 0.58 mN/m.

What about the surface tension liquid-gas ([2]; 328.15 K, x2 = 0.348) of the same compound?
Its surface tension liquid-gas is 29.99 ± 0.56 mN/m.

And the surface tension liquid-gas ([2]; 328.15 K, x2 = 0.435)?
Its surface tension liquid-gas is 28.22 ± 0.53 mN/m.

And the surface tension liquid-gas ([2]; 328.15 K, x2 = 0.522)?
Its surface tension liquid-gas is 26.61 ± 0.5 mN/m.

And the surface tension liquid-gas ([2]; 328.15 K, x2 = 0.609)?
Its surface tension liquid-gas is 25.21 ± 0.48 mN/m.

What about the surface tension liquid-gas ([2]; 328.15 K, x2 = 0.696) of the same compound?
Its surface tension liquid-gas is 23.64 ± 0.46 mN/m.

And the surface tension liquid-gas ([2]; 328.15 K, x2 = 0.783)?
The surface tension liquid-gas was 22.36 ± 0.44 mN/m.

What about the surface tension liquid-gas ([2]; 328.15 K, x2 = 0.87) of the same compound?
Its surface tension liquid-gas is 21.07 ± 0.42 mN/m.

For `C[S+](C)[O-]` [dimethyl sulfoxide], which surface tension liquid-gas ([1]; 298.15 K) is on record?
The surface tension liquid-gas was 42.43 ± 0.74 mN/m.

What about the surface tension liquid-gas ([1]; 308.15 K) of the same compound?
The surface tension liquid-gas was 41.3 ± 0.73 mN/m.

What about the surface tension liquid-gas ([1]; 318.15 K) of the same compound?
The surface tension liquid-gas was 40.17 ± 0.71 mN/m.

And the surface tension liquid-gas ([1]; 328.15 K)?
The surface tension liquid-gas was 39.08 ± 0.69 mN/m.

For `CCO` [ethanol], which surface tension liquid-gas ([1]; 298.15 K) is on record?
Its surface tension liquid-gas is 21.66 ± 0.43 mN/m.

What about the surface tension liquid-gas ([1]; 308.15 K) of the same compound?
The surface tension liquid-gas was 21.01 ± 0.42 mN/m.

And the surface tension liquid-gas ([1]; 318.15 K)?
The surface tension liquid-gas was 20.19 ± 0.4 mN/m.

And the surface tension liquid-gas ([1]; 328.15 K)?
Its surface tension liquid-gas is 19.23 ± 0.39 mN/m.
